From US6479435B1, “Diaryl ethers and processes for their preparation and herbicidal and desiccant compositions containing them” (ISK Americas Incorporated, priority 1997, dated 2002)

Experiments:
Assay type in all cases: in vivo
[1] = test system: Johnsongrass (Sorghum halepense, SORHA); assay: Pre-emerge greenhouse herbicide test, phytotoxicity rating; settings: 14 days after application, rating scale 0-100
In short: (§1)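 Visual 0–100 injury rating (100 = all plants dead) taken 14 days after treatment. Rates of 125–1000 g ai/ha in acetone, 187 l/ha, were sprayed onto soil one day post-sowing; pots were surface-watered to incorporate, then bottom-watered.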

[2] = test system: barnyardgrass (Echinochloa crusgalli, ECHCG); assay: as above; settings: 14 days after application, rating scale 0-100
In short: as §1

[3] = test system: common ragweed (Ambrosia artemisiifolia L., AMBEL); assay: as above; settings: 14 days after application, rating scale 0-100
In short: as §1

[4] = test system: green foxtail (Setaria viridis, SETVI); assay: as above; settings: 14 days after application, rating scale 0-100
In short: as §1

[5] = test system: ivyleaf morningglory (Ipomoea hederacea, IPOHE); assay: as above; settings: 14 days after application, rating scale 0-100
In short: as §1

[6] = test system: lambsquarters (Chenopodium album, CHEAL); assay: as above; settings: 14 days after application, rating scale 0-100
In short: as §1

[7] = test system: large crabgrass (Digitaria sanguinalis, DIGSA); assay: as above; settings: 14 days after application, rating scale 0-100
In short: as §1

[8] = test system: redroot pigweed (Amaranthus retroflexus, AMARE); assay: as above; settings: 14 days after application, rating scale 0-100
In short: as §1

[9] = test system: sicklepod (Cassia obtusifolia, CASOB); assay: as above; settings: 14 days after application, rating scale 0-100
In short: as §1

[10] = test system: velvetleaf (Abutilon theophrasti, ABUTH); assay: as above; settings: 14 days after application, rating scale 0-100
In short: as §1

[11] = test system: field corn (Zea mays L., var. Dekalb 535, CORN); assay: Pre-emerge greenhouse test, crop damage rating; settings: 14 days after application, rating scale 0-100
In short: as §1

[12] = test system: upland rice (Oryza sp., var.Tebonnet, RICE); assay: Pre-emerge greenhouse test, crop damage rating; settings: 125 g ai/ha, 14 days after application, rating scale 0-100
In short: as §1

[13] = test system: soybean (Glycine max L., var. Pella 86, SOY); assay: Pre-emerge greenhouse test, crop damage rating; settings: 14 days after application, rating scale 0-100
In short: as §1

[14] = test system: common ragweed (Ambrosia artemisiifolia L., AMBEL); assay: Post-emerge greenhouse herbicide test, phytotoxicity rating; settings: 14 days after application
In short: (§2)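 Scores use a 0 (no damage) to 100 (complete kill) scale, taken 14 days after a foliar spray. Acetone solutions with 0.25% v/v non-ionic surfactant were applied by track sprayer at 187 l/ha and 63-1000 g ai/ha to bottom-watered 2-3 leaf plants.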

[15] = test system: Johnsongrass (Sorghum halepense, SORHA); assay: as above; settings: 14 days after application
In short: as §2

[16] = test system: barnyardgrass (Echinochloa crusgalli, ECHCG); assay: as above; settings: 14 days after application
In short: as §2

[17] = test system: green foxtail (Setaria viridis, SETVI); assay: as above; settings: 14 days after application
In short: as §2

[18] = test system: ivyleaf morningglory (Ipomoea hederacea, IPOHE); assay: as above; settings: 14 days after application
In short: as §2

[19] = test system: lambsquarters (Chenopodium album, CHEAL); assay: as above; settings: 14 days after application
In short: as §2

[20] = test system: large crabgrass (Digitaria sanguinalis, DIGSA); assay: as above; settings: 63 g al/ha, 14 days after application
In short: as §2

[21] = test system: redroot pigweed (Amaranthus retroflexus, AMARE); assay: as above; settings: 14 days after application
In short: as §2

[22] = test system: velvetleaf (Abutilon theophrasti, ABUTH); assay: as above; settings: 14 days after application
In short: as §2

[23] = test system: field corn (Zea mays L., var. Dekalb 535, CORN); assay: Post-emerge greenhouse test, crop damage rating; settings: 14 days after application
In short: as §2

[24] = test system: soybean (Glycine max L., var. Pella 86, SOY); assay: Post-emerge greenhouse test, crop damage rating; settings: 14 days after application
In short: as §2

Q: Which results are given for Cn1nc(-c2cc(Oc3nc(F)c(F)cc3F)c(Cl)cc2F)c(Cl)c1C(F)(F)F [Compound 1-6]?
A: phytotoxicity rating SORHA ([1]; 125 g ai/ha): 0; phytotoxicity rating SORHA ([1]; 500 g ai/ha): 90; phytotoxicity rating ECHCG ([2]; 125 g ai/ha): 30; phytotoxicity rating ECHCG ([2]; 500 g ai/ha): 70; phytotoxicity rating AMBEL ([3]; 125 g ai/ha): 100; phytotoxicity rating AMBEL ([3]; 500 g ai/ha): 99; phytotoxicity rating SETVI ([4]; 125 g ai/ha): 60; phytotoxicity rating SETVI ([4]; 500 g ai/ha): 30; phytotoxicity rating IPOHE ([5]; 125 g ai/ha): 30; phytotoxicity rating IPOHE ([5]; 500 g ai/ha): 99; phytotoxicity rating CHEAL ([6]; 125 g ai/ha): 40; phytotoxicity rating CHEAL ([6]; 500 g ai/ha): 100; phytotoxicity rating DIGSA ([7]; 125 g ai/ha): 20; phytotoxicity rating DIGSA ([7]; 500 g ai/ha): 10; phytotoxicity rating AMARE ([8]; 125 g ai/ha): 95; phytotoxicity rating AMARE ([8]; 500 g ai/ha): 99; phytotoxicity rating CASOB ([9]; 125 g ai/ha): 0; phytotoxicity rating CASOB ([9]; 500 g ai/ha): 0; phytotoxicity rating ABUTH ([10]; 125 g ai/ha): 50; phytotoxicity rating ABUTH ([10]; 500 g ai/ha): 80; crop damage rating CORN ([11]; 125 g ai/ha): 0; crop damage rating CORN ([11]; 500 g ai/ha): 0; crop damage rating RICE [12]: 0; crop damage rating SOY ([13]; 125 g ai/ha): 0; crop damage rating SOY ([13]; 500 g ai/ha): 0; AMBEL phytotoxicity rating (0-100) ([14]; 63 g al/ha): 0; AMBEL phytotoxicity rating (0-100) ([14]; 500 g al/ha): 90; SORHA phytotoxicity rating (0-100) ([15]; 63 g al/ha): 30; SORHA phytotoxicity rating (0-100) ([15]; 500 g al/ha): 70; ECHCG phytotoxicity rating (0-100) ([16]; 63 g al/ha): 20; ECHCG phytotoxicity rating (0-100) ([16]; 500 g al/ha): 70; SETVI phytotoxicity rating (0-100) ([17]; 63 g al/ha): 20; SETVI phytotoxicity rating (0-100) ([17]; 500 g al/ha): 60; IPOHE phytotoxicity rating (0-100) ([18]; 63 g al/ha): 50; IPOHE phytotoxicity rating (0-100) ([18]; 500 g al/ha): 100; CHEAL phytotoxicity rating (0-100) ([19]; 63 g al/ha): 30; CHEAL phytotoxicity rating (0-100) ([19]; 500 g al/ha): 100; DIGSA phytotoxicity rating (0-100) [20]: 0; AMARE phytotoxicity rating (0-100) ([21]; 63 g al/ha): 99; AMARE phytotoxicity rating (0-100) ([21]; 500 g al/ha): 100; ABUTH phytotoxicity rating (0-100) ([22]; 63 g al/ha): 50; ABUTH phytotoxicity rating (0-100) ([22]; 500 g al/ha): 100; CORN crop damage rating (0-100) ([23]; 63 g al/ha): 10; CORN crop damage rating (0-100) ([23]; 500 g al/ha): 10; SOY crop damage rating (0-100) ([24]; 63 g al/ha): 30; SOY crop damage rating (0-100) ([24]; 500 g al/ha): 50
